From the supplement of paper PMC11208160

Experiment: recombinant barcode read abundance after kanamycin selection (control-corrected) (log10(CPM+1)); higher = more efficient recombination; sequences stand for … in AGTGCAGAGAAAATCGGCCAGTTTTCTCTGCCTGCAGTCCGCATGCCGT…AGATTTATGCAGCGGACTGCCTTTCTCCCAAAGTGATAAACCGGACAGTATCATGGACCGGTTTTCCCGGTAATCCGTATTTGCAAGGTTGGTTTCACT; site = the 11-nt target
Method in brief: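 Each value is log10(CPM+1). It describes recombination efficiency, taken as averaged, control-corrected counts per million of barcodes at recombinant junctions. The pooled E. coli library paired targets with IS621 bridge RNA target-binding loops, was co-electroporated with a donor plasmid, and was plated twice on chloramphenicol/ampicillin LB agar (control) and twice on chloramphenicol/ampicillin/kanamycin containing 0.1 mM IPTG.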
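Further: IS621 recombinase and bridge RNA in Escherichia coli cells.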

Sequence | recombinant barcode read abundance (log10)
GAGGCTCCTTGGGTTCTAACCTGTTGCCC (site GAGGCTCCTTG) | 0.104
GAGGGCACTTGGGTTCTAACCTGTTGCCA (site GAGAGCACTTG) | 0.074
GAGGGCACTTGGGTTCTAACCTGTTGCCA (site GAGGGCACTTG) | 0.917
GAGGGCCCTTGGGTTCTAACCTGTTGCTG (site GAGGGCCCTCA) | 2.8
GAGGGCCCTTGGGTTCTAACCTGTTGCTG (site GAGGGCCCTCC) | 0.808
GAGGGCCCTTGGGTTCTAACCTGTTGCTG (site GAGGGCCCTCG) | 2.03
GAGGGCCCTTGGGTTCTAACCTGTTGCTG (site GAGGGCCCTCT) | 1.56
GAGGGCTCTTGGGTTCTAACCTGTTGCGG (site AGTTCACCTTA) | 0.0921
GAGGGCTCTTGGGTTCTAACCTGTTGCGG (site GAGGGCTCTCC) | 2.73
GAGGGGTCTTGGGTTCTAACCTGTTGCAC (site CAGGCGTCTGT) | 0.122
GAGGGGTCTTGGGTTCTAACCTGTTGCAC (site GAGGGGTCTGT) | 2.81
GAGGGTCCTTGGGTTCTAACCTGTTGCAT (site GAGGGTCCTAA) | 0.573
GAGGGTCCTTGGGTTCTAACCTGTTGCAT (site GAGGGTCCTAC) | 0.542
GAGGGTCCTTGGGTTCTAACCTGTTGCAT (site GAGGGTCCTAG) | 1.65
GAGGGTCCTTGGGTTCTAACCTGTTGCAT (site GAGGGTCCTAT) | 2.74
GAGGTAACTTGGGTTCTAACCTGTTGCAC (site GAGGTAACTGT) | 1.66
GAGGTAACTTGGGTTCTAACCTGTTGCAC (site TGTACGCCTAG) | 0.0446
GAGGTAACTTGGGTTCTAACCTGTTGCCT (site GAAGTAACTAG) | 0.0669
GAGGTAACTTGGGTTCTAACCTGTTGCCT (site GACGTAACTAG) | 1.23
GAGGTAACTTGGGTTCTAACCTGTTGCCT (site GAGGTAACTAG) | 0.0487
GAGGTAACTTGGGTTCTAACCTGTTGCCT (site GATGTAACTAG) | 0.822
GAGTACTCTTGGGTTCTAACCTGTTGCTA (site GAGTACTCTTA) | 1.8
GAGTACTCTTGGGTTCTAACCTGTTGCTA (site GAGTCTTCTTA) | 0.00735
GAGTAGTCTTGGGTTCTAACCTGTTGCTT (site GAGTAGACTAA) | 0.941
GAGTAGTCTTGGGTTCTAACCTGTTGCTT (site GAGTAGTCTAA) | 2.05
GAGTCGTCTTGGGTTCTAACCTGTTGCTT (site GAGCCATCTAA) | 0.402

Sequence | recombinant barcode read abundance (log10)
GAGTCGTCTTGGGTTCTAACCTGTTGCTT (site GAGTCGTCTAA) | 1.45
GAGTGAACTTGGGTTCTAACCTGTTGCCA (site GAGTGAACTTG) | 0.849
GAGTGAACTTGGGTTCTAACCTGTTGCCA (site GTGTGTACTTG) | 0.435
GAGTGCCCTTGGGTTCTAACCTGTTGCTT (site GAGTGCCCTAA) | 0.78
GAGTGCCCTTGGGTTCTAACCTGTTGCTT (site GTGTGGCCTAA) | 0.128
GAGTGGCCTTGGGTTCTAACCTGTTGCAT (site GAGTGGCCTAA) | 0.242
GAGTGGCCTTGGGTTCTAACCTGTTGCAT (site GAGTGGCCTAC) | 0.385
GAGTGGCCTTGGGTTCTAACCTGTTGCAT (site GAGTGGCCTAG) | 0.318
GAGTGGCCTTGGGTTCTAACCTGTTGCAT (site GAGTGGCCTAT) | 0.883
GAGTGGCCTTGGGTTCTAACCTGTTGCGG (site GAGTAGCCTCC) | 0.831
GAGTGGCCTTGGGTTCTAACCTGTTGCGG (site GAGTCGCCTCC) | 0.0473
GAGTGGCCTTGGGTTCTAACCTGTTGCGG (site GAGTGGCCTCC) | 1.84
GAGTGGCCTTGGGTTCTAACCTGTTGCGG (site GAGTTGCCTCC) | 0.00446
GAGTGGCCTTGGGTTCTAACCTGTTGCTT (site GAGTGGCCTAA) | 1.54
GAGTGGCCTTGGGTTCTAACCTGTTGCTT (site GAGTGGCCTAC) | 0.494
GAGTGGCCTTGGGTTCTAACCTGTTGCTT (site GAGTGGCCTAG) | 0.068
GAGTGGCCTTGGGTTCTAACCTGTTGCTT (site GAGTGGCCTAT) | 0.541
GAGTTACCTTGGGTTCTAACCTGTTGCGT (site GAGTTACCTAC) | 2.6
GAGTTACCTTGGGTTCTAACCTGTTGCGT (site GAGTTCCCTAC) | 0.192
GAGTTACCTTGGGTTCTAACCTGTTGCGT (site GAGTTGCCTAC) | 0.229
GAGTTACCTTGGGTTCTAACCTGTTGCGT (site GAGTTTCCTAC) | 0.0625
GAGTTCACTTGGGTTCTAACCTGTTGCCT (site GAGTTCACTAG) | 0.618
GAGTTCACTTGGGTTCTAACCTGTTGCCT (site GGGTTCACTCG) | 0.0995
GAGTTCGCTTGGGTTCTAACCTGTTGCGG (site GAGTTCGCTCC) | 1.08
GAGTTCGCTTGGGTTCTAACCTGTTGCGG (site TAGTCCGCTCC) | 0
GAGTTGTCTTGGGTTCTAACCTGTTGCGG (site CTCGCCACTAG) | 0.0798

Sequence | recombinant barcode read abundance (log10)
GAGTTGTCTTGGGTTCTAACCTGTTGCGG (site GAGTTGTCTCC) | 1.83
GATAACGCTTGGGTTCTAACCTGTTGCCT (site ATGGTACCTTA) | 0.0115
GATAACGCTTGGGTTCTAACCTGTTGCCT (site GATAACGCTAG) | 1.05
GATACGCCTTGGGTTCTAACCTGTTGCCT (site GATACGACTAG) | 0.0197
GATACGCCTTGGGTTCTAACCTGTTGCCT (site GATACGCCTAG) | 0.134
GATACGCCTTGGGTTCTAACCTGTTGCCT (site GATACGGCTAG) | 0.167
GATACGCCTTGGGTTCTAACCTGTTGCCT (site GATACGTCTAG) | 0.139
GATACGTCTTGGGTTCTAACCTGTTGCCT (site GATACGACTAG) | 0.352
GATACGTCTTGGGTTCTAACCTGTTGCCT (site GATACGCCTAG) | 0.187
GATACGTCTTGGGTTCTAACCTGTTGCCT (site GATACGGCTAG) | 0.195
GATACGTCTTGGGTTCTAACCTGTTGCCT (site GATACGTCTAG) | 0.623
GATAGAACTTGGGTTCTAACCTGTTGCTT (site GAGAGGACTAA) | 0.204
GATAGAACTTGGGTTCTAACCTGTTGCTT (site GATAGAACTAA) | 0.94
GATAGGACTTGGGTTCTAACCTGTTGCCT (site GATAGGACTAG) | 0.647
GATAGGACTTGGGTTCTAACCTGTTGCCT (site GATGGGACTCG) | 0
GATATAGCTTGGGTTCTAACCTGTTGCCT (site GATAGAGCTCG) | 0.54
GATATAGCTTGGGTTCTAACCTGTTGCCT (site GATATAGCTAG) | 1.06
GATCAACCTTGGGTTCTAACCTGTTGCCT (site GATCAACCTAG) | 1.62
GATCAACCTTGGGTTCTAACCTGTTGCCT (site GCTCAACCTAG) | 0.0583
GATCAACCTTGGGTTCTAACCTGTTGCCT (site GGTCAACCTAG) | 0.0197
GATCAACCTTGGGTTCTAACCTGTTGCCT (site GTTCAACCTAG) | 0.235
GATCACCCTTGGGTTCTAACCTGTTGCAT (site CGAGTGTCTTA) | 0.193
GATCACCCTTGGGTTCTAACCTGTTGCAT (site GATCACCCTAT) | 1.68
GATCGATCTTGGGTTCTAACCTGTTGCAT (site GATCGATCTAA) | 0.0308
GATCGATCTTGGGTTCTAACCTGTTGCAT (site GATCGATCTAC) | 0.163
